Test results reported in BindingDB's records for doi:10.1016/j.ejmech.2019.111646 (Hangzhou Xixi Hospital, 2019).

Legend:
[1] = Inhibition of 20S proteasome beta 1c (unknown origin) after 1 hr by fluorescence based assay
[2] = Inhibition of 20S proteasome beta 2c (unknown origin) after 1 hr by fluorescence based assay

SMILES: COc1ccc([C@@H](O)[C@H](NC(=O)[C@H](C)NC(=O)CN2CCOCC2)C(=O)N[C@@H](CC2=CCCC2)C(=O)[C@@]2(C)CO2)cc1 [Kzr-616]
- IC50 [1]: 430 nM
- IC50 [2]: 28 nM
